Experimental data: ChEMBL document CHEMBL1201862, “PubChem BioAssay data set” (2004)
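Briefly, cells in 96-well plates were exposed to five compound concentrations for 48 h, and endpoints were estimated by linear interpolation. GI50: concentration for 50% inhibition of growth.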 Calls of active or inactive are those of the source. Cut-off read from the data, not from the text of the source: active = GI50 up to about 1.1 µM and inactive = higher.

Columns and labels:
Assay in all cases: inhibition of tumour cell growth, NCI panel, 48 h
MDA-MB-435 = test system: MDA-MB-435
SW-620 = test system: SW-620
NCI-H460 = test system: NCI-H460
SNB-75 = test system: SNB-75
TK-10 = test system: TK-10
SN12C = test system: SN12C
MDA-N = test system: MDA-N
PC-3 = test system: PC-3
MOLT-4 = test system: MOLT-4
ACHN = test system: ACHN
T47D = test system: T47D
COLO 205 = test system: COLO 205
EKVX = test system: EKVX
SK-OV-3 = test system: SK-OV-3
SK-MEL-2 = test system: SK-MEL-2
NCI/ADR-RES = test system: NCI/ADR-RES
RXF 393 = test system: RXF 393
MCF7 = test system: MCF7
HCT-15 = test system: HCT-15
K562 = test system: K562

| SMILES | GI50 (MDA-MB-435) | GI50 (SW-620) | GI50 (NCI-H460) | GI50 (SNB-75) | GI50 (TK-10) | GI50 (SN12C) | GI50 (MDA-N) | GI50 (PC-3) | GI50 (MOLT-4) | GI50 (ACHN) | GI50 (T47D) | GI50 (COLO 205) | GI50 (EKVX) | GI50 (SK-OV-3) | GI50 (SK-MEL-2) | GI50 (NCI/ADR-RES) | GI50 (RXF 393) | GI50 (MCF7) | GI50 (HCT-15) [µM] | GI50 (K562) |
| --- | --- | --- | --- | --- | --- | --- | --- | --- | --- | --- | --- | --- | --- | --- | --- | --- | --- | --- | --- | --- |
| CCOc1ccccc1/N=N/C1C(=O)N(C(=O)CC(=O)Nc2ccccc2OC)N=C1C (configuration not stated) | > 100 µM (inactive) | > 100 µM (inactive) | 42.4 µM (inactive) | 16.3 µM (inactive) | > 100 µM (inactive) | > 100 µM (inactive) | > 100 µM (inactive) | > 100 µM (inactive) | > 100 µM (inactive) | > 100 µM (inactive) | 37 µM (inactive) | > 100 µM (inactive) | 0.427 µM (active) | 27.5 µM (inactive) | 55.7 µM (inactive) | 54.7 µM (inactive) | 24.2 µM (inactive) | > 100 µM (inactive) | 15.7 | – |
| Clc1cccc(N2CCN(CCN3CCc4c([nH]c5ccccc45)C3c3cccnc3)CC2)c1 (configuration not stated) | > 100 µM (inactive) | > 64.6 µM (inactive) | 8.75 µM (inactive) | 18.8 µM (inactive) | > 100 µM (inactive) | 43.6 µM (inactive) | > 100 µM (inactive) | > 86.7 µM (inactive) | > 71.6 µM (inactive) | > 100 µM (inactive) | 9.38 µM (inactive) | > 33.7 µM (inactive) | 14.5 µM (inactive) | > 100 µM (inactive) | 61 µM (inactive) | > 100 µM (inactive) | > 100 µM (inactive) | 19.2 µM (inactive) | 8.81 | 10.9 µM (inactive) |
| Cc1nc(Cl)c(CBr)c(Cl)n1 | 1.64 µM (inactive) | 0.351 µM (active) | 2.33 µM (inactive) | 1 µM (active) | 2.08 µM (inactive) | 1.73 µM (inactive) | 1.44 µM (inactive) | 1.63 µM (inactive) | 0.33 µM (active) | 1.71 µM (inactive) | 1.88 µM (inactive) | 1.66 µM (inactive) | 5.87 µM (inactive) | 3.84 µM (inactive) | 1.87 µM (inactive) | 2.41 µM (inactive) | 2.11 µM (inactive) | 0.769 µM (active) | 1.61 | 0.21 µM (active) |
| COc1ccc(OC)c(C2Cc3cnc4nc(N)nc(N)c4c3C2)c1 (configuration not stated) | 26.1 µM (inactive) | 33.2 µM (inactive) | 26.5 µM (inactive) | 17.4 µM (inactive) | 26.2 µM (inactive) | 21.7 µM (inactive) | 25.8 µM (inactive) | 22.4 µM (inactive) | 24.5 µM (inactive) | 32.6 µM (inactive) | 25 µM (inactive) | 19.5 µM (inactive) | 25.6 µM (inactive) | 31.8 µM (inactive) | 21.1 µM (inactive) | > 100 µM (inactive) | 19.9 µM (inactive) | 29.2 µM (inactive) | 29.2 | 19.1 µM (inactive) |
| CCNc1ncnc2c1nnn2CC | > 100 µM (inactive) | > 100 µM (inactive) | – | 77.1 µM (inactive) | > 100 µM (inactive) | > 100 µM (inactive) | > 100 µM (inactive) | > 100 µM (inactive) | > 100 µM (inactive) | > 100 µM (inactive) | > 100 µM (inactive) | > 100 µM (inactive) | > 100 µM (inactive) | > 100 µM (inactive) | > 100 µM (inactive) | > 100 µM (inactive) | > 100 µM (inactive) | > 100 µM (inactive) | > 100 | > 100 µM (inactive) |
| COC1/C=C/C(C)C(OC)CC(O)/C=C/C(C)C(C(C)C(OC)C(C)CCC(=O)C(C)C(C/C=C/N(C)C=O)OC)OC(=O)/C=C/C=C(\C)CC(OC)CC2=CC(=O)O[C@@H](C(C)C(OC)C1)[C@H]2O (some centres not stated) | 0.182 µM (active) | 0.0664 µM (active) | 0.0395 µM (active) | 0.0697 µM (active) | 0.29 µM (active) | 0.379 µM (active) | 0.0951 µM (active) | 0.0873 µM (active) | 0.214 µM (active) | 0.091 µM (active) | 0.912 µM (active) | 0.0301 µM (active) | 0.386 µM (active) | 0.151 µM (active) | – | 0.195 µM (active) | 0.0735 µM (active) | 0.0982 µM (active) | 0.0556 | 17.1 µM (inactive) |
| O=C(CC(=O)N(C(=O)c1ccccc1)c1ccc(Cl)cc1)N/N=C\c1ccccc1O | > 100 µM (inactive) | > 100 µM (inactive) | 96.2 µM (inactive) | 22.9 µM (inactive) | 32.3 µM (inactive) | > 100 µM (inactive) | > 100 µM (inactive) | 39.3 µM (inactive) | 2.61 µM (inactive) | 77.3 µM (inactive) | 49.7 µM (inactive) | 85.5 µM (inactive) | 37 µM (inactive) | 17.2 µM (inactive) | 45.1 µM (inactive) | 50.6 µM (inactive) | 36.8 µM (inactive) | 60.7 µM (inactive) | 53.1 | > 100 µM (inactive) |
| O=C(O)C1C(C(=O)O)C23CC2(C(=O)O)C2(C(=O)O)CCC3=C3CCCC312 (configuration not stated) | 7.73 µM (inactive) | 6.34 µM (inactive) | 4.99 µM (inactive) | 11.2 µM (inactive) | 11.1 µM (inactive) | 8.87 µM (inactive) | 4.79 µM (inactive) | 5.45 µM (inactive) | 4.99 µM (inactive) | 9.51 µM (inactive) | 11.8 µM (inactive) | 3.81 µM (inactive) | 11.6 µM (inactive) | 3.89 µM (inactive) | 14 µM (inactive) | 20.7 µM (inactive) | 6.84 µM (inactive) | 11.7 µM (inactive) | 15.1 | 12.7 µM (inactive) |
| O=C1CC(c2n[nH]c3ccccc23)C(=O)N1c1ccccc1 (configuration not stated) | > 100 µM (inactive) | > 84.1 µM (inactive) | > 100 µM (inactive) | > 100 µM (inactive) | > 100 µM (inactive) | > 100 µM (inactive) | > 100 µM (inactive) | > 100 µM (inactive) | > 74 µM (inactive) | > 100 µM (inactive) | > 100 µM (inactive) | > 93.8 µM (inactive) | > 100 µM (inactive) | > 100 µM (inactive) | > 100 µM (inactive) | > 100 µM (inactive) | > 100 µM (inactive) | > 100 µM (inactive) | > 100 | 43.9 µM (inactive) |
| COc1cc(/C=C/C(=O)N[C@@H]2C(=O)N3[C@@H]2SC(C)(C)[C@@H]3C(=O)O)ccc1O | > 100 µM (inactive) | > 100 µM (inactive) | > 100 µM (inactive) | > 100 µM (inactive) | > 100 µM (inactive) | > 100 µM (inactive) | > 100 µM (inactive) | > 100 µM (inactive) | > 100 µM (inactive) | > 100 µM (inactive) | > 100 µM (inactive) | > 100 µM (inactive) | > 100 µM (inactive) | > 100 µM (inactive) | > 100 µM (inactive) | > 100 µM (inactive) | > 100 µM (inactive) | > 100 µM (inactive) | > 100 | > 100 µM (inactive) |
| Cc1cc2[nH]c3c(C#N)c(-c4ccccc4)c(/N=N/c4ccc(F)cc4)c(=O)n3c2cc1C | > 100 µM (inactive) | > 100 µM (inactive) | 83.9 µM (inactive) | 36.2 µM (inactive) | > 100 µM (inactive) | > 100 µM (inactive) | > 100 µM (inactive) | > 100 µM (inactive) | – | > 100 µM (inactive) | 4.22 µM (inactive) | > 100 µM (inactive) | > 100 µM (inactive) | > 100 µM (inactive) | > 100 µM (inactive) | > 100 µM (inactive) | > 100 µM (inactive) | > 100 µM (inactive) | 36.6 | – |
| COc1cc(O)c2c(c1)OCC1(Cc3cc(OC)c(OC)cc31)C2=O (configuration not stated) | 29 µM (inactive) | > 100 µM (inactive) | > 100 µM (inactive) | 78.3 µM (inactive) | > 100 µM (inactive) | > 100 µM (inactive) | 49.9 µM (inactive) | > 100 µM (inactive) | 47.3 µM (inactive) | > 100 µM (inactive) | 11.9 µM (inactive) | 90.2 µM (inactive) | – | > 100 µM (inactive) | > 100 µM (inactive) | 88.9 µM (inactive) | > 100 µM (inactive) | 31.8 µM (inactive) | > 100 | 36.9 µM (inactive) |
| CC1(C)CO[P@@](=S)(c2ccccn2)O[C@@H]1c1ccccc1 | > 100 µM (inactive) | > 100 µM (inactive) | > 100 µM (inactive) | > 100 µM (inactive) | > 100 µM (inactive) | > 100 µM (inactive) | > 100 µM (inactive) | > 100 µM (inactive) | 44.5 µM (inactive) | > 100 µM (inactive) | > 100 µM (inactive) | > 100 µM (inactive) | 96.8 µM (inactive) | > 100 µM (inactive) | – | 75 µM (inactive) | > 100 µM (inactive) | > 100 µM (inactive) | 94.4 | 57 µM (inactive) |
| CCOC(=O)/C(C(N)=O)=C(/O)c1cnccn1 | > 100 µM (inactive) | > 100 µM (inactive) | > 100 µM (inactive) | > 100 µM (inactive) | – | > 100 µM (inactive) | > 100 µM (inactive) | > 100 µM (inactive) | > 100 µM (inactive) | > 100 µM (inactive) | > 100 µM (inactive) | > 100 µM (inactive) | > 100 µM (inactive) | > 100 µM (inactive) | > 100 µM (inactive) | > 100 µM (inactive) | > 100 µM (inactive) | > 100 µM (inactive) | > 100 | > 100 µM (inactive) |
